In one experiment the test system is exon 10 of the human tau gene. Kind of experiment: High-throughput small molecule screen with two-color fluorescent (GFP/RFP) splicing reporter in stable cell line. Format: cell-based.
Settings: not given
An excerpt:
Exon 10 of the human tau gene (SEQ ID NO:9; see also, GenBank Accession No. AF027494) containing short stretches (about 50-100 nucleotides) of each of the flanking introns (i.e., intronic sequences from introns 9 and 10; see, e.g., Wang et al., J. Neurochem., 88:1078-1090 (2004)) was cloned into the EcoRI and BamHI restriction sites of the reporter intron (SEQ ID NO:2), which interrupts the start codon of the GFP open reading frame. The clone was linearized using DraIII and transfected into adherent mammalian cells.
In particular, the background was calculated by measuring the fluorescence of each channel after excitation with shorter wavelengths than the optimal for the reporter proteins. This measurement was corrected using data from non-reporter cells before being subtracted from the reporter-expressing cells as background. The following formulas describe the background subtraction procedure: […]
The two-color fluorescent reporter constructs described above carrying exon 10 of the human tau gene were used in high-throughput small molecule screens of a library of enzyme inhibitors (FIG. 6A) and a library of FDA approved drugs (FIG. 6B). The stable cell line was plated at density of 5000 cells per well in 384-well plates. HEK 293 cells to be used as the non-fluorescent control for background subtraction were plated in separate plates at the same density. Each library was applied to the plates and the cells were incubated for 16 hours. The media was removed and the cells were lysed in RIPA buffer (1% Nonidet P-40, 1% sodium deoxycholate, 0.1% SDS, 150 mM NaCl, 10 mM sodium phosphate (pH 7.2), 2 mM EDTA, 50 mM NaF, 5 mM beta-glycerophosphate). The fluorescence intensities were measured using an Analyst AD plate reader. The background was subtracted as described above and the logarithm at base 2 was calculated for the ratio of RFP to GFP fluorescence intensities (log-ratio) and the product of the GFP and RFP fluorescence intensities (log-expression) for each data point. The log-ratios were normalized by Lowess regression using the log-expression as an independent variable.
Regarding `CN(C)C(=O)C(CCN1CCC(O)(c2ccc(Cl)cc2)CC1)(c1ccccc1)c1ccccc1` [LOPERAMIDE], the Log-ratio came to 0.72. For `N#CC(=C(/N)Sc1ccccc1N)/C(C#N)=C(\N)Sc1ccccc1N` [Compound U-0126], the Log-ratio came out at 0.44.

The same experiment, now with this note: log2 of RFP/GFP fluorescence, background subtracted, Lowess normalized; enzyme inhibitor library; 16 hours incubation; DMSO control −0.21.
As for `O=c1cc(N2CCOCC2)oc2c(-c3ccccc3)cccc12` [LY 294002], the Log-ratio worked out at 0.85. In the case of `O=c1[nH]c2ccccc2n1C1CCN(CCCC(c2ccc(F)cc2)c2ccc(F)cc2)CC1` [PIMOZIDE], the Log-ratio is 0.69. As for `N/C(=N\C(=O)c1nc(Cl)c(N)nc1N)NCc1ccc(Cl)c(Cl)c1` [DICHLOROBENZAMIL], the Log-ratio amounted to 1.75. The same measure, in the same setting: then `C=C[C@H]1C[N@@]2CC[C@H]1C[C@H]2[C@H](O)c1ccnc2ccc(OC)cc12` [QUININE], with 0.43; and `CCCCCCCCCCCCCCCC(=O)OC(CC(=O)O)C[N+](C)(C)C.[Cl-]` (racemic) [PALMITOYL-DL-CARNITINE CI], with 0.61. On the same count and under the same terms, under `CCCCC/C=C\C/C=C\C/C=C\CCCCCCC(=O)NCC(=O)O` [Dihomo-gamma-linolenoyl glycine] stands 0.49.

On to `CC(=O)c1c(O)c(C)c(O)c(Cc2c(O)c3c(c(C(=O)/C=C/c4ccccc4)c2O)OC(C)(C)C=C3)c1O` [ROTTLERIN], for which the Log-ratio is on record as 1.27. Same read-out and setting: under `CC(C)(C)c1cc(/C=C(\C#N)C(N)=S)cc(C(C)(C)C)c1O` [AG-879] stands 1.59; under `NCCNS(=O)(=O)c1cccc2cnccc12` [Compound H-9], 0.61. As for `CC1(C(=O)O)C2CCC(O2)C1(C)C(=O)O` (stereo not drawn) [CANTHARIDIC ACID], the Log-ratio is given as −1.72. Take `N#C/C(=C\c1ccc(O)c(O)c1)C(N)=S` [TYRPHOSTIN 47]: the Log-ratio amounted to 0.48. On the same count and under the same terms, under `CC(C)(C)c1cc(C=C(C#N)C#N)cc(C(C)(C)C)c1O` [TYRPHOSTIN 9] stands 1.69; under `O=S(=O)(c1cccc2c(I)cccc12)N1CCCNCC1` [ML-7], 0.72. Still for that read-out and setting: under `COc1ccc(S(=O)(=O)N(CCO)c2ccccc2CN(C)C/C=C/c2ccc(Cl)cc2)cc1` [KN-93] stands 0.75; under `CCCCc1oc2ccccc2c1C(=O)c1cc(I)c(OCCN(CC)CC)c(I)c1` [AMIODARONE], 0.63; under `CN(CCc1ccc(Cl)c(Cl)c1)CC(O)COc1ccc(NS(C)(=O)=O)cc1` (stereo not drawn) [AM 92016], 0.44. Still for that read-out and setting: then `O=S(=O)(c1cccc2c(Cl)cccc12)N1CCCNCC1` [ML-9], with 0.52; and `Nc1ncnc2c1c(I)cn2[C@@H]1O[C@H](CO)[C@@H](O)[C@H]1O` [5-IODOTUBERCIDIN], with −1.03; and `C=C(C)[C@H]1O[C@H]2CC[C@@]3(C)[C@@](O)(CC[C@H]4[C@@H]5OC(C)(C)[C@H]6C[C@@H]7C(=C)Cc8c(Cl)cc9[nH]c(c5c9c8[C@@]76O)[C@@]43C)[C@@]23O[C@H]3[C@H]1O` [PENITREM A], with 0.56. On to `Cc1cc(O)c2c(=O)c3c(O)cc(O)c4c5c(O)cc(O)c6c(=O)c7c(O)cc(C)c8c1c2c(c34)c(c78)c65` [HYPERICIN], for which the Log-ratio amounted to 1.14. On the same count and under the same terms, then `CC(C)COCC(CN(Cc1ccccc1)c1ccccc1)N1CCCC1` (stereo not drawn) [BEPRIDIL], with 0.74.

Regarding `CCCCC/C=C\C/C=C\C/C=C\C/C=C\CCCC(=O)N[C@@H](C)C(=O)O` [Arachidonoyl alanine], the Log-ratio was found to be 0.38. On the same count and under the same terms, under `COC[C@H]1OC(=O)c2coc3c2[C@@]1(C)C1=C(C3=O)[C@@H]2CCC(=O)[C@@]2(C)C[C@H]1OC(C)=O` [WORTMANNIN] stands 1.37; under `COC(=O)C1=C(C)NC(C)=C(C(=O)OCCN(C)Cc2ccccc2)C1c1cccc([N+](=O)[O-])c1` (stereo not drawn) [NICARDIPINE], 0.68; under `Oc1ccc(-c2nc(-c3ccncc3)c(-c3ccc(F)cc3)[nH]2)cc1` [SB-202190], 0.46.

The values above are taken from patent publication US8580511B2, “Two-color fluorescent reporter for alternative pre-mRNA splicing” (The Regents of the University of California, priority 2006, dated 2013).
